We go through 48 compounds from patent publication US11186577B2, “Vasopressin receptor antagonists and products and methods related thereto” (BlackThorn Therapeutics, Inc., priority 2017, dated 2021).

pIC50: −log10 of the molar value. A value given as a limit tells only on which side of the number the result lay.

human Arginine Vasopressin Receptor 1a (AVPR1a), sequence (P37288 whole entry): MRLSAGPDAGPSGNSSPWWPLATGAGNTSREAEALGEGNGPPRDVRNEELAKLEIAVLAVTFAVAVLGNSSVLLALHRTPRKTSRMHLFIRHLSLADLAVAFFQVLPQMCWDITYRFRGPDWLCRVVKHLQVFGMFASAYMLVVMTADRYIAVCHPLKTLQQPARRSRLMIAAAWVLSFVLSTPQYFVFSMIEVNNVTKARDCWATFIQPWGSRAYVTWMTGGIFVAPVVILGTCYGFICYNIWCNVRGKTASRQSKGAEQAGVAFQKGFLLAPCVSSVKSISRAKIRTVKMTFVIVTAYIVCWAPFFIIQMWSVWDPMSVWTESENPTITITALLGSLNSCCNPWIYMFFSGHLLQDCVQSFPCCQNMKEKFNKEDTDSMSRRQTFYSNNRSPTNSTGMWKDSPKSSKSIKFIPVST

The first experiment has as its target human Arginine Vasopressin Receptor 1a (AVPR1a) (Homo sapiens (Human), UniProt P37288). The experiment can be described thus: Vasopressin V1A receptor antagonist assay (AVP-evoked calcium, FLIPR, CHO-AVPR1a cells). In kind it is cell-based.
Conditions: not given
How it is done:
The purpose of this assay was to determine the inhibitory effect of synthesized compounds on the Vasopressin V1a receptor. The assay as performed in Chinese Hamster Ovary (CHO) cells expressing the human Arginine Vasopressin Receptor 1a (AVPR1a). Arginine Vasopressin (AVP) evokes an increase in intracellular calcium in CHO-AVPR1a cells which is measured in a fluorescence assay on the FLIPR^TETRA using calcium sensitive dyes. Test compounds were assessed for their ability to affect the magnitude of the response to AVP, with antagonists showing a concentration-dependent reduction in the AVP-mediated fluorescence. Compounds were tested in duplicate in a 10-point, 1:3 dilution series starting at a nominal concentration of 3 μM in the assay.
CHO-AVPR1a cells were maintained in routine culture in T175 Flasks at 37° C., 5% CO2. The growth medium consists of Ham's F12 media supplemented with 10% v/v fetal bovine serum, 1× non-essential amino acids, and 0.4 mg/ml Geneticin G418.
On day one, cells were harvested from T175 flasks when they are 80-90% confluent by first washing the cell monolayer with PBS and then dissociated using trypsin 0.05%/EDTA (3 mL for a T175 Flask). The flasks were incubated at room temperature until the cells detached. To the cell suspension, 10 ml of growth media was added and the cell density determined using the Vi-Cell automated cell counter. The cells were spun at 1000 rpm for 3 minutes, then the supernatant was carefully removed and discarded. The cell pellet was re-suspended at 6.0e^5 cells/ml in growth media. 25 μL of cells in growth media was dispensed into each well (15,000 cells per well) of a poly-D-lysine coated black, clear bottomed, 384-well plate. The plates were incubated at 37° C., 5% CO2 overnight.
At the start of each assay day, the potency of AVP was assessed and an EC80 concentration determined for subsequent compound profiling. Assays were performed using a two-step addition protocol on the FLIPR^TETRA; first addition of 5 μl of control or test compound at 10× final in assay buffer with 15 min incubation at 37° C., 5% CO2 followed by 10 μl of AVP at 6× final concentration in assay buffer. […] The assay buffer consisted of HBSS (+Ca/+Mg) supplemented with 20 mM HEPES, and for the preparation of the AVP agonist only, 0.1% w/v bovine serum albumin. The assay was initiated by the removal of growth media from the cells and replacement with 45 μl of Calcium-6 dye (Molecular Devices) prepared at 1× in assay buffer. Cells are loaded with dye for 60-90 min at 37° C., 5% CO2 before initiation of the FLIPR^TETRA protocol. […] At the end of the incubation period, 10 μl of AVP in assay buffer containing 0.1% BSA was added at the previously determined EC80 concentration.
A word on the pIC50: it is the negative decadic logarithm of the IC50, by convention in mol/L. For the compound `CN1Cc2cc(Cl)ccc2-n2c(nnc2C2CC3(C2)CN(S(=O)(=O)C2CC2)C3)C1` [compound 26], the pIC50 was 6.30 to 7.00.

In the case of `CC(C)C(=O)N1CC2(CC(c3nnc4n3-c3ccc(Cl)cc3CN(C)C4)C2)C1` [compound 30], the pIC50 is 6.30 to 7.00.

Turning to `CN1Cc2cc(Cl)ccc2-n2c(nnc2C2CC3(C2)CN(C(=O)C2(C)CC2)C3)C1` [compound 31], the pIC50 is 6.30 to 7.00. As to `CN1Cc2cc(Cl)ccc2-n2c(nnc2C2CC3(C2)CN(S(C)(=O)=O)C3)C1` [compound 34, 8-chloro-5-methyl-1-(2-(methylsulfonyl)-2-azaspiro[3.3]heptan-6-yl)-5,6-dihydro-4H-benzo[f][1,2,4]triazolo[4,3-a][1,4]diazepine], the pIC50 was 6.00 to 6.30. Regarding `CN1Cc2cc(Cl)ccc2-n2c(nnc2C2CC3(C2)CN(C(=O)C2CCC2)C3)C1` [compound 35], the pIC50 was 6.30 to 7.00. Same read-out and setting: the value for `CC(C)N1Cc2cc(Cl)ccc2-n2c(nnc2C2CC3(C2)CN(c2cccnc2)C3)C1` [compound 51] was 6.30 to 7.00; that for `COCCN1Cc2cc(Cl)ccc2-n2c(nnc2C2CC3(C2)CN(c2cccnc2)C3)C1` [compound 55] was 6.30 to 7.00; that for `Fc1ccc(N2CC3(CC(c4nnc5n4-c4ccc(Cl)cc4CNC5)C3)C2)nc1` [compound 60, 8-chloro-1-(2-(5-fluoropyridin-2-yl)-2-azaspiro[3.3]heptan-6-yl)-5,6-dihydro-4H-benzo[f][1,2,4]triazolo[4,3-a][1,4]diazepine] was 6.30 to 7.00. Same read-out and setting: the value for `CC(=O)N1Cc2cc(Cl)ccc2-n2c(nnc2C2CC3(C2)CN(c2cccnn2)C3)C1` [compound 66] was 6.30 to 7.00. As for `CN1Cc2cc(Cl)ccc2-n2c(nnc2C2CC3(C2)CN(C(=O)C2CC2(F)F)C3)C1` (stereo not drawn) [compound 124], the pIC50 is 6.30 to 7.00.

The same experiment, now with this note: read-out: V1a IC50.
On to `CC(C)OC(=O)N1Cc2cc(Cl)ccc2-n2c(C3CC4(C3)CN(c3ccc(F)cn3)C4)nnc2C1C` (single isomer, unassigned) [Cpd 163B], for which the negative logarithm of the IC50 (pIC50) was 6.00 to 6.30. For the compound `COC(=O)N1Cc2cc(Cl)ccc2-n2c(C3CC4(C3)CN(c3cnccn3)C4)nnc2C1C` (single isomer, unassigned) [Cpd 165B], the pIC50 is 6.00 to 6.30. The same measure, in the same setting: in the case of `COC(=O)N1Cc2cc(Cl)ccc2-n2c(C3CC4(C3)CN(c3ncccn3)C4)nnc2C1C` (single isomer, unassigned) [Cpd 166B] it was 6.00 to 6.30. The same measure, in the same setting: in the case of `CC(C)OC(=O)N1Cc2cc(Cl)ccc2-n2c(C3CC4(C3)CN(c3ncccn3)C4)nnc2C1C` (single isomer, unassigned) [Cpd 167B] it was less than 6.00; in that of `CCOC(=O)N1Cc2cc(Cl)ccc2-n2c(C3CC4(C3)CN(c3ncccn3)C4)nnc2C1C` (single isomer, unassigned) [Cpd 168B], 6.30 to 7.00; in that of `CCOC(=O)N1Cc2cc(Cl)ccc2-n2c(C3CC4(C3)CN(c3ccc(F)cn3)C4)nnc2C1C` (single isomer, unassigned) [Cpd 169B], 6.30 to 7.00. Regarding `COC(=O)N1Cc2cc(Cl)ccc2-n2c(C3CC4(C3)CN(c3ncc(F)cn3)C4)nnc2C1C` (single isomer, unassigned) [Cpd 170B], the pIC50 is 6.00 to 6.30. On to `CCOC(=O)N1Cc2cc(Cl)ccc2-n2c(C3CC4(C3)CN(c3ncc(F)cn3)C4)nnc2C1C` (single isomer, unassigned) [Cpd 172B], for which the pIC50 was less than 6.00. The same measure, in the same setting: in the case of `CC1c2nnc(C3CC4(C3)CN(c3ccc(F)cn3)C4)n2-c2ccc(Cl)cc2CN1C(=O)C(C)(C)F` (single isomer, unassigned) [Cpd 178B] it was 6.30 to 7.00. For `CC1c2nnc(C3CC4(C3)CN(c3ccc(F)cn3)C4)n2-c2ccc(Cl)cc2CN1C` (single isomer, unassigned) [Cpd 179B], the pIC50 was 6.30 to 7.00.

Take `CC1c2nnc(C3CC4(C3)CN(c3ccccn3)C4)n2-c2ccc(Cl)cc2CN1C(=O)C1(F)CC1` (single isomer, unassigned) [Cpd 181B]: the pIC50 is 6.30 to 7.00. On the same count and under the same terms, the value for `COC(=O)N1Cc2cc(Cl)ccc2-n2c(C3CC4(C3)CN(c3ccncn3)C4)nnc2C1C` (single isomer, unassigned) [Cpd 184B] was less than 6.00; that for `CC(C)OC(=O)N1Cc2cc(Cl)ccc2-n2c(C3CC4(C3)CN(c3ccncn3)C4)nnc2C1C` (single isomer, unassigned) [Cpd 187A] was greater than 7.00.

With `CC(C)OC(=O)N1Cc2cc(Cl)ccc2-n2c(C3CC4(C3)CN(c3ccncn3)C4)nnc2C1C` (single isomer, unassigned) [Cpd 187B], the pIC50 is less than 6.00.

In the case of `COC(=O)N1Cc2cc(Cl)ccc2-n2c(C3CC4(C3)CN(c3ncncc3F)C4)nnc2C1C` (single isomer, unassigned) [Cpd 188A], the pIC50 was greater than 7.00.

As to `COC(=O)N1Cc2cc(Cl)ccc2-n2c(C3CC4(C3)CN(c3ncncc3F)C4)nnc2C1C` (single isomer, unassigned) [Cpd 188B], the pIC50 was less than 6.00. On the same count and under the same terms, in the case of `CC1c2nnc(C3CC4(C3)CN(c3ccc(F)cn3)C4)n2-c2ccc(Cl)cc2CN1C(=O)OC1CC1` (single isomer, unassigned) [Cpd 191B] it was less than 6.00; in that of `CC1c2nnc(C3CC4(C3)CN(c3ncc(F)cn3)C4)n2-c2ccc(Cl)cc2CN1C(=O)OC1CC1` (single isomer, unassigned) [Cpd 192B], less than 6.00. Still for that read-out and setting: the value for `CC1c2nnc(C3CC4(C3)CN(c3ncc(F)cn3)C4)n2-c2ccc(Cl)cc2CN1C(=O)OC(CF)CF` (single isomer, unassigned) [Cpd 194B] was less than 6.00. In the case of `CC(C)OC(=O)N1Cc2cc(Cl)ccc2-n2c(C3CC4(C3)CN(c3ncc(F)cn3)C4)nnc2C1C` (single isomer, unassigned) [Cpd 201B], the pIC50 was 6.00 to 6.30.

As to `CN1Cc2cc(Cl)ccc2-n2c(nnc2C2CC3(C2)CN(C(=O)c2ccccn2)C3)C1` [compound 24], the pIC50 is less than 6.00. With `CN1Cc2cc(Cl)ccc2-n2c(nnc2C2CC3(C2)CN(C(=O)N2CCOCC2)C3)C1` [compound 25], the pIC50 is less than 6.00. With `CN1Cc2cc(Cl)ccc2-n2c(nnc2C2CC3(C2)CN(C(=O)C2CCOCC2)C3)C1` [compound 27], the pIC50 was less than 6.00. As for `CN1Cc2cc(Cl)ccc2-n2c(nnc2C2CC3(C2)CN(C(=O)OC2CCOCC2)C3)C1` [compound 29], the pIC50 was less than 6.00. The same measure, in the same setting: in the case of `CN1Cc2cc(Cl)ccc2-n2c(nnc2C2CC3(C2)CN(C(=O)CC2CC2)C3)C1` [compound 32] it was less than 6.00. Same read-out and setting: in the case of `CN1Cc2cc(Cl)ccc2-n2c(nnc2C2CC3(C2)CN(C(=O)C2CCO2)C3)C1` (stereo not drawn) [compound 33] it was less than 6.00; in that of `CN1Cc2cc(Cl)ccc2-n2c(nnc2C2CC3(C2)CN(c2ncccn2)C3)C1` [compound 38], greater than 7.00; in that of `Clc1ccc2c(c1)CN(C1CCC1)Cc1nnc(C3CC4(C3)CN(c3cnccn3)C4)n1-2` [compound 40], greater than 7.00. Same read-out and setting: in the case of `COCCN1Cc2cc(Cl)ccc2-n2c(nnc2C2CC3(C2)CN(c2cnccn2)C3)C1` [compound 43] it was greater than 7.00. Consider `COCCN1Cc2cc(Cl)ccc2-n2c(nnc2C2CC3(C2)CN(c2ccc(F)cn2)C3)C1` [compound 44], for which the pIC50 was greater than 7.00. The same measure, in the same setting: in the case of `COCCN1Cc2cc(Cl)ccc2-n2c(nnc2C2CC3(C2)CN(c2ncccc2F)C3)C1` [compound 53] it was greater than 7.00. The same measure, in the same setting: the value for `CC(C)(C)OC(=O)N1Cc2cc(Cl)ccc2-n2c(nnc2C2CC3(C2)CN(c2ccccn2)C3)C1` [compound 62] was greater than 7.00; that for `O=C(C(F)F)N1Cc2cc(Cl)ccc2-n2c(nnc2C2CC3(C2)CN(c2cnccn2)C3)C1` [compound 82] was greater than 7.00; that for `CN1Cc2cc(Cl)ccc2-c2c(C3CC4(C3)CN(c3ccc(F)cn3)C4)noc2C1` [compound 97, 8-chloro-1-(2-(5-fluoropyridin-2-yl)-2-azaspiro[3.3]heptan-6-yl)-5-methyl-5,6-dihydro-4H-benzo[c]isoxazolo[4,5-e]azepine] was greater than 7.00. Consider `COCC(=O)N1CC2(CC(c3nnc4n3-c3ccc(Cl)cc3CN(C)C4)C2)C1` [compound 126], for which the pIC50 was less than 6.00. With `O=C(C1C[C@H]1F)N1Cc2cc(Cl)ccc2-n2c(nnc2C2CC3(C2)CN(c2ccc(F)cn2)C3)C1` (stereo partly drawn) [compound 158], the pIC50 was greater than 7.00. As for `O=C(C1C[C@@H]1F)N1Cc2cc(Cl)ccc2-n2c(nnc2C2CC3(C2)CN(c2ccc(F)cn2)C3)C1` (stereo partly drawn) [compound 159], the pIC50 is greater than 7.00.

With `CC1c2nnc(C3CC4(C3)CN(c3ccc(F)cn3)C4)n2-c2ccc(Cl)cc2CN1C(=O)C(C)(C)F` (stereo not drawn) [compound 178], the pIC50 is greater than 7.00.
